Earlier results in patent publication US8071577B2, “Multi-phase contraceptive preparation based on a natural estrogen” (Bayer Pharma Aktiengesellschaft, priority 2004, dated 2011).

System: ovulation
Conditions: daily dose known from the literature

Compound | ovulation-inhibitory dose
C[C@]12CCC(=O)C=C1[C@@H]1C[C@@H]1[C@H]1[C@@H]3[C@@H]4C[C@@H]4[C@@]4(CCC(=O)O4)[C@@]3(C)CC[C@@H]12 [drospirenone] | 2.0-3.0 mg a day
C[C@]12CCC3=C4CCC(=O)C=C4CC[C@H]3[C@@H]1CC[C@@]2(O)CC#N [dienogest] | 1.0 mg a day
